Assay results from patent US10040783B2 (Emory University, priority 2011, dated 2018).
Where two headings read alike, the source gives them in different places.

Columns and labels:
C6G cells = experiment: CellTiter-Glo luminescent cell viability assay (cytotoxicity); conditions: for CC50: read-out: CC50, half maximal cytotoxic concentration, C6G cells after 48 h incubation
EP2 receptor = EP2 receptor (Homo sapiens, UniProt P43116); experiment: Schild regression of PGE2-induced EP2 activation in C6G-EP2 cells; assay type: cell-based; parameters: expressed in transfected cells; host or cells: C6G-EP2 cells
Procedure: (§1) Information on the modality of antagonism can be obtained by performing Schild regression analysis characterized by: log (dr−1)=log XB−log KB. In the equation, dose ratio (dr)=fold shift in EC50, XB=[antagonist], KB=equilibrium dissociation constant for the antagonist-receptor complex. […] Thus, a lower KB value indicates a higher inhibitory potency.
To perform the Schild regression, C6G-EP2 cells were incubated first with vehicle, 0.01, 0.1 or 1 μM of test compound for 5 minutes, then with increasing concentrations of PGE2 to activate the EP2 receptor.

EP4 receptor = EP4 receptor (Homo sapiens, UniProt P35408); experiment: Schild regression analysis for EP4 receptor; assay type: cell-based; conditions: for Kb: read-out: KB (μM) EP4, from Schild regression analysis
Description: as §1

in vitro = conditions: rat
[1] = test system: rat primary hippocampal cultures; experiment: NMDA-induced LDH release (excitotoxicity) in primary hippocampal cultures; assay type: cell-based; conditions: 10 μM compound; NMDA 30 μM plus glycine 10 μM overnight
Description: Excitotoxicity caused by NMDA receptor activation is recognized to induce neuronal apoptosis both in vitro and in vivo in cortical neurons. NMDA receptor activation can, via COX-2, cause prostaglandin production, including PGE2. Activation of the EP2 receptor by PGE2 in microglia can promote neuroinflammation in several models of neurodegenerative diseases. The effect of EP2 antagonist compounds were examined on NMDA-induced excitotoxicity. Rat primary hippocampal cultures (DIV13-15) were preincubated with vehicle or increasing concentrations of test compound for 15-20 min, followed by treatment with NMDA (30 μM) plus glycine (10 μM) overnight in continued presence of the test compound. Lactate dehydrogenase (LDH) release was used as the measure of neuronal injury.

[2] = C6G-EP2 cells, PGE2 as agonist, read-out: KB (nM) EP2, from Schild regression analysis
[3] = additional compounds tables, read-out: EP2 KB

Sequence of EP4 receptor (P35408 whole entry): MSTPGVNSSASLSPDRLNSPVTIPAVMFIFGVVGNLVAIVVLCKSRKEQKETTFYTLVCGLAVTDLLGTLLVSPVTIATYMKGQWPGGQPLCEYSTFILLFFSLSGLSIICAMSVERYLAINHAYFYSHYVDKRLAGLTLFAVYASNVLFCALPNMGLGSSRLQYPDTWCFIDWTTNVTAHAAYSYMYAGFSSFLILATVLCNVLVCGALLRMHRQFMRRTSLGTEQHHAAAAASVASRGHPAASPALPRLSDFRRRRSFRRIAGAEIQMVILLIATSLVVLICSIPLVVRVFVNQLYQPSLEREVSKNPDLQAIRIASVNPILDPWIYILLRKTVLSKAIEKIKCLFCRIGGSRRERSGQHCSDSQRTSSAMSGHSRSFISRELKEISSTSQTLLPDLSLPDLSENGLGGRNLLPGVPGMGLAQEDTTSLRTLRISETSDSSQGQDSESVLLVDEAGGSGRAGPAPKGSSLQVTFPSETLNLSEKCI
Sequence of EP2 receptor (P43116 whole entry): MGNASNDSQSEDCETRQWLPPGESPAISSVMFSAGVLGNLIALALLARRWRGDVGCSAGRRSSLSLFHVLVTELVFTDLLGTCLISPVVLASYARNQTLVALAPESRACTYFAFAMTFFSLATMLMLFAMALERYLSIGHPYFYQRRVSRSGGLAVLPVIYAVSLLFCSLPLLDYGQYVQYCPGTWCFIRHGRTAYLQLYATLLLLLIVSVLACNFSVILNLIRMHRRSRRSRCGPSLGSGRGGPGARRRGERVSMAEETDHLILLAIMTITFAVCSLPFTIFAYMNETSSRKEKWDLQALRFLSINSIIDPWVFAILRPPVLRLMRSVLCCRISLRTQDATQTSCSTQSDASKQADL

| Compound | Therapeutic index (in vitro), CC50/KB for EP2 (C6G cells) | Kb (EP2 receptor; [2]) [nM] | Selective index, KB EP4/KB EP2 (EP4 receptor) | Kb (EP4 receptor) [µM] | CC50 at 48 h (in vitro; C6G cells) [µM] | Kb (EP2 receptor; [3]) [nM] | other results |
| --- | --- | --- | --- | --- | --- | --- | --- |
| COc1cc(C=CC(=O)NCCn2c(C)nc3ccccc32)cc(OC)c1OC [1a, N-(2-(2-methyl-1H-benzo[d]imidazol-1-yl)ethyl)-3-(3,4,5-trimethoxyphenyl)acrylamide] | 1,030 | 348 | 39 | 13.7 | 360 |  |  |
| COc1ccc(C=CC(=O)NCCn2c(C)nc3ccccc32)cc1OC [1b, 3-(3,4-dimethoxyphenyl)-N-(2-(2-methyl-1H-benzo[d]imidazol-1-yl)ethyl)acrylamide] | 473 | 947 | 14 | 13.3 | 448 |  |  |
| Cc1nc2ccccc2n1CCNC(=O)C=Cc1ccc2c(c1)OCO2 [1c, 3-(benzo[d][1,3]dioxol-5-yl)-N-(2-(2-methyl-1H-benzo[d]imidazol-1-yl)ethyl)acrylamide] | 219 | 1490 | 10 | 15.3 | 325 |  |  |
| COc1cc(C=CC(=O)NCCn2cnc3ccccc32)cc(OC)c1OC [1d, N-(2-(1H-benzo[d]imidazol-1-yl)ethyl)-3-(3,4,5-trimethoxyphenyl)acrylamide] | 123 | 2520 | 6 | 13.9 | 311 |  |  |
| COc1cc(/C=C/C(=O)NCCN2CCCCC2C)cc(OC)c1OC (stereo not shown) [1e] |  |  |  | 18.9 |  |  | CC50 (C6G cells): 316 µM; NMDA-induced LDH release, % of control [1]: did not show any effect and not; KB (nM) EP2, from Schild regression analysis (EP2 receptor; C6G-EP2 cells, PGE2 as agonist): Inactive |
| COc1ccc(C=CC(=O)NCCn2c(C)cc3cc(F)ccc32)cc1OC [1g, 3-(3,4-dimethoxyphenyl)-N-(2-(5-fluoro-2-methyl-1H-indol-1-yl)ethyl)acrylamide] | 11,900 | 22.2 | 77 | 1.7 | 264 |  |  |
| COc1ccc(/C=C/C(=O)NCCn2c(C(F)(F)F)cc3ccccc32)cc1OC [1i] | 3,550 | 58.8 | 381 | 22.4 |  |  | CC50 (C6G cells): 209 µM |
| COc1cc(C=CC(=O)NCCCn2c(C)cc3ccccc32)cc(OC)c1OC [1j, N-(3-(2-methyl-1H-indol-1-yl)propyl)-3-(3,4,5-trimethoxyphenyl)acrylamide] | 98 | 1860 | 3 | 5.7 | 182 |  |  |
| COc1cc(C=CC(=O)N(C)CCn2c(C)cc3ccccc32)cc(OC)c1OC [1k, N-methyl-N-(2-(2-methyl-1H-indol-1-yl)ethyl)-3-(3,4,5-trimethoxyphenyl)acrylamide] | 1,500 | 185 | 90 | 16.6 | 278 |  |  |
| COc1cc(CCC(=O)NCCn2c(C)cc3ccccc32)cc(OC)c1OC [1l, N-(2-(2-methyl-1H-indol-1-yl)ethyl)-3-(3,4,5-trimethoxyphenyl)propanamide] |  |  |  | 18.1 | 397 |  |  |
| COc1ccc(C=CC(=O)NCCn2c(C)cc3ccccc32)cc1 [1m, 3-(4-methoxyphenyl)-N-(2-(2-methyl-1H-indol-1-yl)ethyl)acrylamide] | 187,000 | 16.5 | 484 | 8 | 3090 |  |  |
| COc1ccc(C=CC(=O)NCCn2c(C)cc3cc(F)ccc32)cc1 [1n, N-(2-(5-fluoro-2-methyl-1H-indol-1-yl)ethyl)-3-(4-methoxyphenyl)acrylamide] | 15,400 | 42.4 | 277 | 11.7 | 653 |  |  |
| Cc1cc2ccccc2n1CCNC(=O)C=Cc1ccc2c(c1)OCO2 [1o, 3-(benzo[d][1,3]dioxol-5-yl)-N-(2-(2-methyl-1H-indol-1-yl)ethyl)acrylamide] | 8,070 | 18.1 | 629 | 11.4 | 146 |  |  |
| CCOc1ccc(C=CC(=O)NCCn2c(C)cc3ccccc32)cc1OC [1p, 3-(4-ethoxy-3-methoxyphenyl)-N-(2-(2-methyl-1H-indol-1-yl)ethyl)acrylamide] | 71,800 | 7.2 | 268 | 1.9 | 517 |  |  |
| Cc1cc2ccccc2n1CCNC(=O)C=Cc1ccc(CC(C)C)cc1 [1q, 3-(4-isobutylphenyl)-N-(2-(2-methyl-1H-indol-1-yl)ethyl)acrylamide] | 2,420 | 82.4 | 367 | 30.2 | 199 |  |  |
| Cc1cc2ccccc2n1CCNC(=O)C=Cc1ccc(F)c(F)c1 [1r, 3-(3,4-difluorophenyl)-N-(2-(2-methyl-1H-indol-1-yl)ethyl)acrylamide] | 23,400 | 3.8 | 2,800 | 10.6 | 89 |  |  |
| Cc1cc2cc(F)ccc2n1CCNC(=O)C=Cc1ccc(F)c(F)c1 [1s, 3-(3,4-difluorophenyl)-N-(2-(5-fluoro-2-methyl-1H-indol-1-yl)ethyl)acrylamide] | 97,700 | 7 | 1,990 | 13.9 | 684 |  |  |
| Cc1cc2ccccc2n1CCNC(=O)C=Cc1cc(F)c(F)c(F)c1 [1t, N-(2-(2-methyl-1H-indol-1-yl)ethyl)-3-(3,4,5-trifluorophenyl)acrylamide] | 2,460 | 18.7 | 921 | 17.2 | 46 |  |  |

| Compound | Therapeutic index (in vitro), CC50/KB for EP2 (C6G cells) | Kb (EP2 receptor; [2]) [nM] | Selective index, KB EP4/KB EP2 (EP4 receptor) | Kb (EP4 receptor) [µM] | CC50 at 48 h (in vitro; C6G cells) [µM] | Kb (EP2 receptor; [3]) [nM] | other results |
| --- | --- | --- | --- | --- | --- | --- | --- |
| Cc1cc2cc(F)ccc2n1CCNC(=O)C=Cc1cc(F)c(F)c(F)c1 [1u, N-(2-(5-fluoro-2-methyl-1H-indol-1-yl)ethyl)-3-(3,4,5-trifluorophenyl)acrylamide] | 2,230 | 27.8 | 715 | 19.9 | 62 |  |  |
| CCOc1c(Br)cc(CCC(=O)NCCn2c(C)cc3ccccc32)cc1OC [1v] |  | 1.8 |  |  |  |  | Schild plot slope (EP2 receptor; C6G-EP2 cells, PGE2): 1.2; Modality of antagonism on EP2 receptor (EP2 receptor; Schild plots): competitive antagonism |
| COc1ccc(/C=C/C(=O)NCCn2c(C)cc3cc(F)ccc32)cc1Cl [1x] | 95,400 | 6.3 | 525 | 3.3 | 601 |  |  |
| COc1cc(OC)c(C=CC(=O)NCCn2c(C)cc3ccccc32)cc1Br [1y, 3-(5-bromo-2,4-dimethoxyphenyl)-N-(2-(2-methyl-1H-indol-1-yl)ethyl)acrylamide] | 155,000 | 8 | 859 | 6.9 | 1240 |  |  |
| Cc1cc(/C=C/C(=O)NCCn2c(C(F)(F)F)cc3ccccc32)cc(C)c1F [TG7-13] |  |  |  |  |  | 288 |  |
| COc1cc(C(=O)NCCn2c(C)cc3ccccc32)cc(OC)c1OC [TG7-112-1] |  |  |  |  |  | > 1000 |  |
| Cc1cc2ccccc2n1CCNC(=O)c1nc2cc(F)ccc2[nH]1 [TG7-118] |  |  |  |  |  | 128 |  |
| Cc1cc2ccccc2n1CCNC(=O)C1CCC(=O)N1 (stereo not shown) [TG7-120] |  |  |  |  |  | > 1000 |  |
| COc1cc(/C=C/C(=O)NCCc2c(C)oc3ccccc23)cc(OC)c1OC [TG7-122] |  |  |  |  |  | 217 |  |
| Cc1cc2ccccc2n1CCNC(=O)c1c[nH]c2c(F)cccc2c1=O [TG7-131] |  |  |  |  |  | 630 |  |
| Cc1cc2ccccc2n1CCNC(=O)c1ccc(C(N)=O)cc1 [TG7-140] |  |  |  |  |  | 150 |  |
| Cc1cc2ccccc2n1CCNC(=O)c1ccc(N2CCN(C)CC2)c(F)c1 [TG7-141, 3-fluoro-N-(2-(2-methyl-1H-indol-1-yl)ethyl)-4-(4-methylpiperazin-1-yl)benzamide] |  |  |  |  |  | 51.1 |  |
| Cc1cc2ccccc2n1CCNC(=O)c1ccc(N(C)C)cc1 [TG7-142, 4-(dimethylamino)-N-(2-(2-methyl-1H-indol-1-yl)ethyl)benzamide] |  |  |  |  |  | 10.4 |  |
| Cc1cc2ccccc2n1CCNC(=O)c1ccc(N)cc1 [TG7-143] |  |  |  |  |  | 207 |  |
| CC(=O)Nc1ccc(C(=O)NCCc2c(C)[nH]c3ccccc23)cc1 [TG7-146] |  |  |  |  |  | 138 |  |
| Cc1cc2ccccc2n1CCNC(=O)c1ccc(C#N)cc1 [TG7-147] |  |  |  |  |  | 139 |  |
| Cc1cc2ccccc2n1CCNC(=O)c1cnc2ccc(F)cc2c1O [TG7-148] |  |  |  |  |  | 174 |  |
| COc1cccc2c1C(=O)c1c(O)c3c(c(O)c1C2=O)C[C@@](O)(C(=O)CO)C[C@@H]3O[C@H]1C[C@H](N)[C@H](O)[C@H](C)O1 [doxorubicin, reference compound] |  |  |  |  |  |  | CC50 at 48 h (in vitro): 0.2 µM |
